Source: patent publication US6887896B1, “7-[(7-Alkoxy)-chrom-3-en-6-yl]-heptatrienoic acid and 7-[(3-alkoxy)-5,6-dihydronaphthalen-2-yl]-heptatrienoic acid derivatives having serum glucose reducing activity” (Allergan, Inc., priority 2003, dated 2005)

Legend:
RXRα [1] = target: T1, RXRα (Homo sapiens, UniProt P19793); assay: holoreceptor transactivation assay, RXRα; format: cell-based; conditions: for EC50: holoreceptor transactivation, read-out: RXR Trans. EC50 α; for Emax: percentage compared to the standard compound, read-out: RXR Trans. efficacy (number in parentheses) α
T1 construct: expressed in transfected cells
T1 sequence (P19793 1-462): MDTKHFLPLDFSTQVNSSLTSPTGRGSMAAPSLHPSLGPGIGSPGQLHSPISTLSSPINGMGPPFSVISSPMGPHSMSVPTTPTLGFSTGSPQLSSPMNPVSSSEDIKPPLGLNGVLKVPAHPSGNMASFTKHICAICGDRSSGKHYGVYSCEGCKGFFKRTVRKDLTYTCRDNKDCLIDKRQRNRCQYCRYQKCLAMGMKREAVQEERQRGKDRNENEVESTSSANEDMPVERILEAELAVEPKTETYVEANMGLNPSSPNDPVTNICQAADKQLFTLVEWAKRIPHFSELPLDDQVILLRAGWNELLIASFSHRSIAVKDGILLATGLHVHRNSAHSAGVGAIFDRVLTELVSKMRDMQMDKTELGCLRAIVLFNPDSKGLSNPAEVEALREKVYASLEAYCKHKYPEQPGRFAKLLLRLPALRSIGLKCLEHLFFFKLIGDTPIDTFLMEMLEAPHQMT
In short: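 Agonist-like activity measured by transactivation: RXR subtypes in a holoreceptor assay, RAR subtypes in a chimeric receptor assay. Values are EC50 in nM. Efficacy is given as percentage of maximum relative to the standard (2E,4E,1′S,2′S)-3-methyl-5-[2′-methyl-2′-(5,5,8,8-tetramethyl-5,6,7,8-tetrahydro-naphthalen-2-yl)cyclopropyl]-penta-2,4-dienoic acid.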

RXRα [2] = target: T1, RXRα; assay: ligand binding assay, RXRα; conditions: for Ki: read-out: RXR Bind Ki α; for Kd: Table 9 (Formula F), read-out: RXR α Kd
In short: (§1)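 Binding of compounds to several retinoid receptor subtypes was measured. Results are given as Ki values in nanomolar concentration, derived per Cheng et al.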

RXRγ = target: T2, RXRγ (UniProt P28705); assay: holoreceptor transactivation assay, RXRγ; format: cell-based; conditions: for EC50: holoreceptor transactivation, read-out: RXR Trans. EC50 γ; for RXR Trans. efficacy (number in parentheses) γ: percentage compared to the standard compound
T2 sequence (P28705 1-463): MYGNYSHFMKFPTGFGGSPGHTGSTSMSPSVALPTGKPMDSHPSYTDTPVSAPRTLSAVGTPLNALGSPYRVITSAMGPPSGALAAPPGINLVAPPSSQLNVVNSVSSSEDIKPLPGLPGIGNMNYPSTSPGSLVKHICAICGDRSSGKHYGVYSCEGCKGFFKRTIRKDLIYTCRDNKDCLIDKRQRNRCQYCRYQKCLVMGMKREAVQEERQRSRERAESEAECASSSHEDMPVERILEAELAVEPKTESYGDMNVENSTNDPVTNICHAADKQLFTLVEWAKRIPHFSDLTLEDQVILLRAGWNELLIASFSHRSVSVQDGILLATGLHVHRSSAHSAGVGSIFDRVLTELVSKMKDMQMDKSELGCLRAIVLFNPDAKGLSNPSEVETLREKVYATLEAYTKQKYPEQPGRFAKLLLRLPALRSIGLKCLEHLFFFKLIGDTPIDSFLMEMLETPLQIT
Text: Specifically, one such assay is a chimeric receptor transactivation assay which tests for agonist-like activity in the R RAPE and RAR7 receptor subtypes, and which is based on work published by Feigner, P. L. and Holm, M (1989) Focus, 112 is described in detail in U.S. Pat. No. 5,455,265. The specification of U.S. Pat. No. 5,455,265 is hereby expressly incorporated by reference. A holoreceptor transactivation assay and a ligand binding assay which measure the antagonist/agonist like activity of the compounds of the invention, or their ability to bind to the several retinoid receptor subtypes, respectively, are described in published PCT Application No. WO WO93/11755 (particularly on pages 30-33 and 37-41) published on Jun. 24, 1993, the specification of which is also incorporated herein by reference. A detailed experimental procedure for holoreceptor transactivations has been described by Heyman et al. Cell 68, 397-406, (1992); Allegretto et al. J. Biol. Chem. 268, 26625-26633, and Mangelsdorf et al. The Retinoids: Biology, Chemistry and Medicine, pp 319-349, Raven Press Ltd., New York, which are expressly incorporated herein by reference. The results obtained in this assay are expressed in EC50 numbers, as they are also in the chimeric receptor transactivation assay. The results of the ligand binding assay are expressed in Ki numbers. (See Cheng et al. Biochemical Pharmacology Vol. 22 pp 3099-3108, expressly incorporated herein by reference.)
Efficacy in a transactivation assay is expressed as a percentage of the maximum potency attained by the compound compared to a standard which, in this case, is the compound named (2E,4E,1′S,2′S)-3-methyl-5-[2′-methyl-2′-(5,5,8,8-tetramethyl-5,6,7,8-tetrahydro-naphthalen-2-yl)-cyclopropyl]-penta-2,4-dienoic acid. This standard compound is described in U.S. Pat. No. 6,114,533.
The specification of this application for patent is organized in several sections in accordance with structural Formulas A through F each of which discloses a group of preferred compounds within the scope of the invention. Tables that disclose the activity of certain exemplary compounds of the invention in the above-described RXR receptor transactivation and binding assays are found in the corresponding sections. […] The transactivation data pertaining to the activation of RXR receptors were obtained in the holoreceptor assay.
Generally speaking, in the tables disclosing the results of transactivation and binding assays the numbers in parentheses indicate efficacy as a percentage compared to the standard compound, (2E,4E,1′S,2′S)-3-methyl-5-[2′-methyl-2′-(5,5,8,8-tetramethyl-5,6,7,8-tetrahydro-naphthalen-2-yl)cyclopropyl]-penta-2,4-dienoic acid and the other numbers indicate the measured EC50 and K; in nanomolar concentration.

RXRβ = target: T3, RXRβ (UniProt P28704); assay: ligand binding assay, RXRβ; conditions: for Ki: read-out: RXR Bind Ki β; for Kd: Table 9 (Formula F), read-out: RXR β Kd
T3 sequence (P28704 1-520): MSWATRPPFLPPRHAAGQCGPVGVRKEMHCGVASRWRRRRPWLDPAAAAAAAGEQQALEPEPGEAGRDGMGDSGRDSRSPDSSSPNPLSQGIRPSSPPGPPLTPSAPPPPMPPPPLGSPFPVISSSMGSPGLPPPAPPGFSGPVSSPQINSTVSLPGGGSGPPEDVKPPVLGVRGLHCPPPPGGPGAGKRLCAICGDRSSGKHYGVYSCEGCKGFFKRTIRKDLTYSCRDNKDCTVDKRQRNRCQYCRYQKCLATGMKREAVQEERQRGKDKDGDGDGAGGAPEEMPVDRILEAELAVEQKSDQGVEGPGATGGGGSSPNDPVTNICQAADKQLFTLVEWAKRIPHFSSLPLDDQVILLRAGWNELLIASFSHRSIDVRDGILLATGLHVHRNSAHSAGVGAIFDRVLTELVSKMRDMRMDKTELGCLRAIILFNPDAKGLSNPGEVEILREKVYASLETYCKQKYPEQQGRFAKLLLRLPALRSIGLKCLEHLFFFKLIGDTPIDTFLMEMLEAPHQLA
In short: as §1

Row | SMILES | EC50 (RXRα [1]) | Emax (RXRα [1]) | Ki (RXRα [2]) | EC50 (RXRγ) | RXR Trans. efficacy (number in parentheses) γ (RXRγ) | Ki (RXRβ) | Kd (RXRα [2]) | Kd (RXRβ)
1 | CCOc1cc2c(cc1\C(=C/C=C/C(C)=C/C(=O)O)CC)C(C(C)(C)C)=CCC2(C)C [Compound A-18, 7-(8-tert-butyl-3-ethyoxy-5,5-dimethyl-5,6-dihydronaphthalen-2-yl)-3-methyl-nona-2E,4E,6Z-trienoic acid] | 2.6 nM | 18% | 5 nM | 2.7 nM | 11% | 31 nM | – | –
2 | CCOc1cc2c(cc1\C(C)=C(F)/C=C/C(C)=C/C(=O)O)C=CCC2(C)C [Compound A-76, (2E,4E,6E)-7-(3-Ethoxy-5,5-dimethyl-5,6-dihydro-naphthalen-2-yl)-6-fluoro-3-methyl-octa-2,4.6-trienoic acid] | 50 nM | 104% | 35 nM | 51 nM | 109% | 347 nM | – | –
3 | CCOc1cc2c(cc1\C(CC)=C(F)/C=C/C(C)=C/C(=O)O)C=CCC2(C)C [Compound A-77] | 41 nM | 69% | 6 nM | 41 nM | (73) % | 63 nM | – | –
4 | CCOc1cc2c(cc1\C(CC)=C(F)/C=C/C(C)=C/C(=O)O)C(CC)=CCC2(C)C [Compound A-78, (2E,4E,6E)-7-(3-Ethoxy-8-ethyl-5,5-dimethyl-5,6-dihydro-naphthalen-2-yl)-6-fluoro-3-methyl-nona-2,4,6-trienoic acid] | 3 nM | 23% | 3 nM | 4 nM | 11% | 19 nM | – | –
5 | CCOc1cc2c(cc1\C(C)=C(F)/C=C/C(C)=C/C(=O)O)C(C(C)C)=CCC2(C)C [Compound A-79, (2E,4E,6E)-6-Fluoro-3-(4,4-dimethylethoxy-1-isopropyl-3,4-dihydronaphthalen-7-yl)-3-methyl-2.4,6-octa-trienoic acid] | 1 nM | 62% | 2 nM | 2 nM | 59% | 13 nM | – | –
6 | CCOc1cc2c(cc1\C(C)=C(F)/C=C/C(C)=C/C(=O)O)C(C(C)(C)C)=CCC2(C)C [Compound A-82, (2E,4E,6E)-6-Fluoro-3-(4,4-dimethyl-6-ethoxy-1-tert-butyl-3,4 dihydronaphthalen-7-yl)-3-methyl-2,4,6-octa-trienoic acid] | 1 nM | 43% | 2 nM | 2 nM | 31% | 14 nM | – | –
7 | CCOc1cc2c(cc1\C(CC)=C(F)/C=C/C(C)=C/C(=O)O)C(C(C)(C)C)=CCC2(C)C [Compound A-83, (2E,4E,6E)-7-(8-tert-Butyl-3-ethoxy-5,5-dimethyl-5,6-dihydronaphthalen-2-yl)-6-fluoro-3-methyl-nona-2,4,6-trienoic acid] | 2 nM | 13% | 2 nM | 2 nM | 7% | 12 nM | – | –
8 | CCOc1c(\C(C)=C(F)/C=C/C(C)=C/C(=O)O)cc2c(c1Br)C(C)(C)CC=C2C(C)C [Compound A-169, (2E,4E,6E)-7-(4-Bromo-3-ethoxy-8-isopropyl-5,5-dimethyl-5,6-dihydro-naphthalen-2-yl)-6-fluoro-3-methyl-octa-2.4,6-trienoic acid] | 0.4 nM | 66% | – | 0.6 nM | 71% | – | 3 nM | 16 nM
9 | CCOc1c(\C(CC)=C(F)/C=C/C(C)=C/C(=O)O)cc2c(c1Br)C(C)(C)CC=C2C(C)C [Compound A-170, (2E,4E,6E)-7-(4-Bromo-3-ethoxy-8-isopropyl-5,5-dimethyl-5,6-dihydro-naphthalen-2-yl)-6-fluoro-3-methyl-nona-2,4,6-trienoic acid] | 0.2 nM | 60% | – | 0.4 nM | 53% | – | 2 nM | 14 nM
10 | CCOc1c(\C(=C(F)/C=C/C(C)=C/C(=O)O)C(C)C)cc2c(c1Br)C(C)(C)CC=C2C(C)C [Compound A-171, (2E,4E,6E)-7-(4-Bromo-3-ethoxy-8-isopropyl-5,5-dimethyl-5,6-dihydro-naphthalen-2-yl)-6-fluoro-3.8-dimethyl-nona-2.4,6-trienoic acid] | 0.9 nM | 24% | – | 2 nM | 16% | – | 2 nM | 15 nM
11 | CC(/C=C/C(F)=C(/C)c1cc2c(c(Br)c1OC(C)C)C(C)(C)CC=C2C(C)C)=C\C(=O)O [Compound A-172, (2E,4E,6E)-7-(4-Bromo-3-isopropoxy-8-isopropyl-5,5-dimethyl-5,6-dihydro-naphthalen-2-yl)-6-fluoro-3-methyl-octa-2,4,6-trienoic acid] | 19 nM | 31% | – | 18 nM | 12% | – | 8 nM | 41 nM
12 | CCOc1c(\C(C)=C(F)/C=C/C(C)=C/C(=O)O)cc2c(c1Br)C(C)(C)CC=C2C(C)(C)C [Compound A-174, (2E,4E,6E)-7-(4-Bromo-8-tert-butyl-3-ethoxy-5,5-dimethyl-5,6-dihydro-naphthalen-2-yl)-6-fluoro-3-methyl-octa-2,4,6-trienoic acid] | 1 nM | 24% | – | 2 nM | 12% | – | 2 nM | 12 nM
